No end group written: not given here.
Legend:
[1] = tested on: influenza A virus strains H3N2 (X31), H7N1, H1N1, H5N1, H3N2 (Victoria), H3N2 (NY); type: binding
[2] = tested on: A/California/7/2009 H1N1; type: binding, influenza A virus
[3] = tested on: A/Aichi/2/68 H3N2 (X31); type: binding, influenza A virus
[4] = tested on: A/NewYork/55/2004 H3N2; type: binding, influenza A virus
[5] = tested on: X31 virus (A/Aichi/2/68 H3N2); assay: Inhibition of influenza A virus binding to fetuin (SPR)
[6] = target: A/Panama/2007/1999 H3N2; type: cell-based, influenza A virus; conditions: read-out: Mean Ki(HAI)
[7] = tested on: influenza A virus; type: cell-based
[8] = tested on: A/Aichi/2/68 H3N2; type: cell-based, influenza A virus
[9] = tested on: A/Aichi/2/68 H3N2; assay: Viral fusion with human erythrocyte ghosts (R18 dequenching); type: cell-based, influenza A virus; conditions: concentration-dependent, maximum; pH 5; FIG. 7
[10] = tested on: A/Aichi/2/68 H3N2; assay: Infectivity inhibition assay (MTS, MDCK II cells); type: cell-based, influenza A virus; conditions: MOI 0.05, 24 h, concentration dependent, maximum, FIG. 8
[11] = tested on: A/Mute swan/Germany/R901/06 H7N1
[12] = tested on: A/Aichi/2/68 H3N2
[13] = tested on: A/Mute swan/Germany/R901/06 K3141 H7N1

SEQ ID NO:34 (FLGYDVFF; Synthetically produced peptide)
relative binding preference for virus strains, in descending order [1]: H3N2 (NY) over H5N1, H3N2 (X31) and H7N1

SEQ ID NO:29 (FYYYDVFF; Synthetically produced peptide)
binding preference among the three tested strains [2]: shifts the binding preference strongly to H1N1/2009

SEQ ID NO:97 (FYGYDVKF; Synthetically produced peptide)
relative binding preference for virus strains, in descending order [1]: H5N1 over H7N1, H3N2 (X31) and H3N2 (NY)

SEQ ID NO:76 (FYDYDRFY; Synthetically produced peptide)
virus binding (SPR) [3]: does not bind
virus binding (SPR) [4]: specifically binds
virus binding (SPR) [2]: does not bind

SEQ ID NO:33 (FYGYDVAF; Synthetically produced peptide)
relative binding preference for virus strains, in descending order [1]: H7N1 over H3N2 (X31), H3N2 (NY) and H5N1

SEQ ID NO:23 (FYYYDVFY; Synthetically produced peptide)
binding preference among the three tested strains [2]: shifts the binding preference strongly to H1N1/2009

KKKKFYGYDVFF-NH2 [SEQ ID NO:28]
factor of increased binding signal in comparison to SEQ ID NO:1 [3]: 2
factor of enhanced binding capability in comparison to SEQ ID NO:1 [4]: 4
binding preference among the three tested strains [2]: shifts the binding preference strongly to H1N1/2009
factor of enhanced binding capability in comparison to SEQ ID NO:1 [2]: 24
IC50 ([5]; A/Aichi/2/68 H3N2 (X31), SPR, read-out: Inhibition of binding to fetuin (IC50, RB)): 20 µM
fold lower IC50,RB in comparison to reference peptide SEQ ID NO:1 ([5]; X31): about 4.5 fold
Ki [6]: 0.1 µM
fold lower Ki(HAI) than the conventional peptides (SEQ ID NO:100, 101, 102) [7]: up to 1,600 fold
inhibition of viral attachment to single red blood cells [8]: up to 50%
inhibition of fusion efficiency with erythrocyte ghosts [9]: up to 40%
protection from infection / reduction of infectivity [10]: up to 55%
IC50 [11]: 30 µM
IC50 ([12]; A/Aichi/2/68): 18 µM
Ki ([12]; read-out: Mean Ki(HAI)): 31.9 µM
IC50 [13]: 23 µM
Ki ([13]; read-out: Mean Ki(HAI)): 36.5 µM

Source: US20180072770A1, “Influenza Virus Binding Peptides” (priority 2014, published 2018)
